Data as given in PMC10714399, “Open Source Antibiotics: Simple Diarylimidazoles Are Potent against Methicillin-Resistant Staphylococcus aureus” (ACS Infectious Diseases, 2023).
Values after ≈ are worked out from the molar mass of the structure shown. Where two headings read alike, the source gives them in different places.

Tests used:
[1] = system: Staphylococcus aureus ATCC 43300 MRSA; experiment: CO-ADD antibacterial assay (growth inhibition, MIC), MRSA; format: cell-based; details: read-out: MRSA MIC (CO-ADD)
Experimental: Hit Confirmation of active compounds by whole cell growth inhibition assays was conducted as an 8-point dose response to determine the Minimum Inhibitory Concentration (MIC), in duplicate (n=2). The inhibition of growth is measured against those microorganisms that […]
Included in the Hit Confirmation were 5 bacteria: Escherichia coli, Klebsiella pneumoniae, Acinetobacter baumannii, Pseudomonas aeruginosa and Staphylococcus aureus, and 2 fungi Candida albicans and Cryptococcus neoformans. […]
Assay Parameters Bacteria Fungi HEK293 Haemolysis […]
Duplicate (n=2) Duplicate (n=2) Duplicate (n=2) Duplicate (n=2)
QC Control MIC: Control MIC: Control CC50: Control HC10:
Non-Binding Non-Binding TC, 384-well Polypropylene
Plates Surface (NBS), Surface (NBS), black wall/clear 384-well and 384-well plate 384-well plate bottom polystyrene 384-
Cation-adjusted Yeast Nitrogen DMEM
Media Mueller Hinton Base supplemented 0.9% NaCl
Hit Confirmation outcomes are detailed in individual Project reports, personalised for each Project Submission for each CO-ADD user.
Please see your data sheet with file extension P0XXX_HC_data.xlsx, for example CO-ADD Project P0100, P0100_HC_data.xlsx
Study: HC_data ID: HC-Procedures & Materials
Date: Last updated June 2018 Confidential Page 3 of 11
(§1) (1 picture or pasted object on this page, not shown here)
Samples were provided by the collaborator and stored frozen at -20 °C. Samples were prepared in DMSO and water to a final testing concentration of 32 µg/mL or 20 µM (unless otherwise indicated in the data sheet) and serially diluted 1:2 fold for 8 times. Each sample concentration was prepared in 384-well plates, non-binding surface plate (NBS; Corning 3640) for each bacterial/fungal strain, tissue-culture treated (TC-treated; Corning 3712/3764) black for mammalian cell types and polypropylene 384-well (PP; Corning 3657) for haemolysis assays, all in duplicate (n=2), and keeping the final DMSO concentration to a maximum of 0.5%. All the sample preparation was done using liquid handling robots. […]
detailed in the Data sheet for the individual Project.
All bacteria were cultured in Cation-adjusted Mueller Hinton broth (CAMHB) at 37 °C overnight. A sample of each culture was then diluted 40-fold in fresh broth and incubated at 37 °C for 1.5-3 h. The resultant mid-log phase cultures were diluted (CFU/mL measured by OD600), then added to each well of the compound containing plates, giving a cell density of 5×10^5 CFU/mL and a total volume of 50 µL. All the plates were covered and incubated at 37 °C for 18 h without shaking.
Inhibition of bacterial growth was determined measuring absorbance at 600 nm (OD600), using a Tecan M1000 Pro monochromator plate reader. The percentage of growth inhibition was calculated for each well, using the negative control (media only) and positive control (bacteria without inhibitors) on the same plate as references.
The percentage of growth inhibition was calculated for each well, using the negative control (media only) and positive control (bacteria without inhibitors) on the same plate. The MIC […]
by an inhibition ≥ 80%. In addition, the maximal percentage of growth inhibition is reported as DMax, indicating any compounds with partial activity.
Date: Last updated June 2018 Confidential Page 5 of 11
Material Code Brand/Supplier Cat No.
Compound preparation plate, Polypropylene PP Corning 3364
Assay Plates – Antimicrobial
Non-binding surface NBS 384w Corning 3640
Assay Plates – Cytotoxicity
Tissue culture treated Black/Clear bottom 384w Corning 3712
Assay Plates - Haemolysis PP-Haem Corning 3657 […]
Growth media - bacteria CAMHB Bacto Laboratories 212322
Culture agar - fungi YPD Becton Dickinson 242720
Growth media - fungi YNB Becton Dickinson 233520
Resazurin Sigma-Aldrich R7017
Dulbecco's Modified Eagle Medium DMEM Life Technologies 11995-073
Foetal Bovine Serum FBS Bovogen FFBS-500
0.9% NaCl Saline Baxter AHF7124
Sample Name Sample ID MW Conc. Solvent Source […]

[2] = Kinetic solubility estimation using nephelometry (Monash); format: physicochemical; details: kinetic from dmso stock
Experimental: Compound in DMSO was spiked into either pH 6.5 phosphate buffer or 0.01 M HCl (approximately pH 2.0) with the final DMSO concentration being 1%. […]
b) Kinetic Solubility Estimation using Nephelometry (SolpH)
Compound in DMSO was spiked into either pH 6.5 phosphate buffer or 0.01 M HCl (approx pH 2.0) with the final
DMSO concentration being 1%. After 30 minutes had elapsed, samples were then analysed via Nephelometry to
determine a solubility range. See Bevan and Lloyd (2000) Anal Chem, 72:1781-1787. […]
(§2) In Vitro Intrinsic Clearance […]
(§3) Experimental results are tabulated on the following page(s).
as §1

[3] = Distribution coefficient estimation using chromatography, gLogD (Monash); format: physicochemical; details: gradient HPLC retention against standard compounds, pH 7.4
Text: Partition coefficient values (LogD) of the test compounds were estimated at pH 7.4 by the correlation of their chromatographic retention properties against the characteristics of a series of standard compounds with known partition coefficient values. The method employed is a gradient HPLC-based derivation of the method developed by Lombardo.[42] […]
c) Distribution Coefficient Estimation using Chromatography (gLogDpH)
Partition coefficient values (LogD) of the test compounds were estimated at pH 7.4 by correlation of their
chromatographic retention properties against the characteristics of a series of standard compounds with known
partition coefficient values. […]
as §2, §3, §1

[4] = In vitro metabolic stability, human liver microsomes (Monash); format: in vitro ADME; details: Monash; for microsomal CLint at 1 µM: read-out: HLM Clint (Monash); for half-life at 1 µM: read-out: HLM t1/2 (Monash)
Experimental: (§4) The metabolic stability assay was performed by incubating each test compound with a suspension of liver microsomes (0.4 mg/mL protein, 1 μM substrate, 37 °C). Microsomes were purchased from XenoTech. The metabolic reaction was initiated by the addition of an NADPH-regenerating system and quenched at various time points over a 60 min incubation by the addition of acetonitrile containing metolazone as an internal standard. Control samples (containing no NADPH) were included (quenched at 2, 30, and 60 min) to monitor for potential degradation in the absence of cofactor. […]
(§5) d) In Vitro Metabolic Stability
(§6) The metabolic stability assay was performed by incubating each test compound with a suspension of liver
(§7) microsomes (0.4 mg/mL, 37°C). The metabolic reaction was initiated by the addition of an NADPH-regenerating
(§8) system and quenched at various time points over a 60 minute incubation by the addition of acetonitrile containing
(§9) metolazone as internal standard. Control samples (containing no NADPH) were included (quenched at 2, 30 and 60
(§10) minutes) to monitor for potential degradation in the absence of cofactor.
(§11) The human liver microsomes used in this experiment were supplied by XenoTech, lot # 1710084.The rat liver
(§12) microsomes used in this experiment were supplied by XenoTech, lot # 1610290. Microsomal incubations were
(§13) performed at a substrate concentration of 1 µM.
(§14) Data analysis and interpretation:
(§15) Substrate depletion as a function of time was analysed as described by Obach (1999) Drug Metab. Dispos., 27:1350-
(§16) 1359. Intrinsic clearance (CLint) values were classified at the limits of low and high clearance bands based on a
(§17) rearrangement of the well stirred model of hepatic elimination. It should be noted that the potential impact of
(§18) compound binding (either in microsomes or in blood) on the relationship between in vitro intrinsic clearance and
(§19) hepatic clearance in vivo has not been accounted for in these studies.
(§20) In Vitro Intrinsic Clearance
(§21) Species (µL/min/mg protein)
(§22) Low Clearance High Clearance
as §3, §1

[5] = In vitro metabolic stability, rat liver microsomes (Monash); format: in vitro ADME; details: Monash; for microsomal CLint at 1 µM: read-out: RLM Clint (Monash); for half-life at 1 µM: read-out: RLM t1/2 (Monash)
Experimental: as §4, §5, §6, §7, §8, §9, §10, §11, §12, §13, §14, §15, §16, §17, §18, §19, §20, §21, §22, §3, §1

[6] = Mouse liver microsome (MLM) metabolic stability (UNC); format: in vitro ADME
Text: Supplement id3c00286_si_002.xlsx, sheet "Series 2 Data" | column: MLM Clint (mL/min/kg) (UNC); MLM t1/2 (min) (UNC); MLM E (UNC)

[7] = system: Staphylococcus aureus NCTC 13373 (mecA-positive; methicillin-resistant); experiment: In vitro antibacterial activity, MIC (UCL School of Pharmacy assay), MRSA; format: cell-based; details: Staphylococcus aureus, UCL; read-out: MRSA MIC (UCL)
Outline: (§23)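 Broth microdilution MIC in isosensitest broth; inoculum from overnight tryptone soya agar culture suspended in PBS to A600 0.1 (~1 × 10^8 CFU/mL), then diluted 1:100. Compounds tested as 2-fold series from 32 to 0.03 μg/mL, DMSO at most 2%; vancomycin as quality control.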

[8] = system: Enterococcus faecalis ATCC 51299 (vanA-positive; vancomycin-resistant); experiment: In vitro antibacterial activity, MIC (UCL), VRE; format: cell-based; details: read-out: VRE MIC (UCL)
Outline: as §23

Aqueous solubility = format: physicochemical; details: thermodynamic from solid; NEU; read-out: Aqueous Solubility (NEU)
[9] = Human plasma protein binding (PPB); format: in vitro ADME; details: human plasma, NEU
[10] = Human liver microsome intrinsic clearance; format: in vitro ADME; details: human liver microsomes, NEU; read-out: HLM CLint (NEU)
[11] = Rat hepatocyte intrinsic clearance; format: in vitro ADME; details: rat hepatocytes, NEU; read-out: Rat Hep CLint (NEU)
[12] = system: MRC-5SV2 (human lung fibroblast cell line); experiment: Toxicity against MRC-5SV2; format: cell-based; details: MRC5 cells
Experimental: (§24) ADME and toxicity for compounds were measured according to procedures outlined in the manuscript submitted in parallel to this one;2 other procedures were used for those compounds analysed by Monash University (in vitro ADME) or UCL (toxicity), both described in the main

[13] = system: PMM (primary mouse macrophages); experiment: Toxicity against PMM; format: cell-based; details: PMM
Experimental: as §24

U2OS = experiment: Toxicity against U2OS; format: cell-based; details: U2OS cells
Text: Supplement id3c00286_si_002.xlsx, sheet "Series 2 Data" | column: U2OS TC50 (uM)

THP1 = experiment: Toxicity against THP1; format: cell-based; details: THP1 cells
Text: Supplement id3c00286_si_002.xlsx, sheet "Series 2 Data" | column: THP1 TC50 (uM)

LogD7.4 (Chrom Log D) = format: physicochemical; details: chromatographic system (Chrom Log D); pH 7.4, NEU; read-out: LogD 7.4 (NEU)
[14] = 0.01 M HCl, simulated gastric fluid, pH 2.0, read-out: Sol (pH 2.0) (Monash)
[15] = pH 6.5 phosphate buffer, pH 6.5, aqueous buffer, read-out: Sol (pH 6.5) (Monash)

Row | MIC [1] [µg/mL] | solubility kinetic at 30 min [2, 14] [µg/mL] | solubility kinetic at 30 min [2, 15] [µg/mL] | chromatographic logD [3] | microsomal CLint at 1 µM [4] [µL/min/mg] | half-life at 1 µM [4] [min] | microsomal CLint at 1 µM [5] [µL/min/mg] | half-life at 1 µM [5] [min] | MIC [7] [µg/mL] | MIC [8] [µg/mL] | solubility (Aqueous solubility) [µM] | microsomal CLint [10] [µL/min/mg] | hepatocyte CLint [11] [µL/min/1e6 cells] | Compound | MRC5 TC50 [12] [µM] | PMM TC50 [13] [µM] | U2OS TC50 (U2OS) [µM] | THP1 TC50 (THP1) [µM] | further results
1 | 32 (≈ 99 µM) | 25 to 50 (≈ 77.3 to 155 µM) | 12.5 to 25 (≈ 38.7 to 77.3 µM) | 1.6 | 37 | 47 | 74 | 23 |  |  |  |  |  | c1ccc(-c2nc3n(c2-c2ccc4c(c2)OCO4)CCS3)nc1 [OSA_000813] |  |  |  |  | MLM E (UNC) ([6]; mouse liver microsomes): 0.873; CLint scaled ([6]; mouse, liver microsomes): 619 mL/min/kg; half-life ([6]; mouse, liver microsomes, read-out: MLM t1/2 (UNC)): 9.08 min
2 | 32 (≈ 101 µM) | > 100 | 25 to 50 (≈ 79.3 to 159 µM) | 1.8 | 47 | 37 | 99 | 18 |  |  |  |  |  | c1ccc(-c2nc3ccccn3c2-c2ccc3c(c2)OCO3)nc1 [OSA_000814] |  |  |  |  | 
3 |  |  |  |  |  |  |  |  | > 32 | > 32 | 22 (≈ 7.42 µg/mL) | < 3 | 82.3 | COc1ccn2c(Nc3ccccc3F)c(-c3cnn(C)c3)nc2c1 [OSA_000855] | 64 | 64 | 50 | 50 | Human PPB (NEU) [9]: Low recovery,Unstable in plasma
4 |  |  |  |  |  |  |  |  | 16 (≈ 50.1 µM) | > 32 | 85 (≈ 27.1 µg/mL) | > 300 | 25.1 | COc1ccn2c(-c3ccc(F)cc3)c(-c3ccccn3)nc2c1 [OSA_000858] | 3.62 | 8 | 1.28 | 7.63 | chromatographic logD (LogD7.4 (Chrom Log D)): 2.9; fraction unbound ([9]; human, plasma, read-out: Human PPB (NEU) (converted)): 0.054
